According to patent US9314464B2, “Compounds and compositions as protein kinase inhibitors” (Novartis AG, priority 2009, dated 2016):

Tests used:
B-Raf V600E = B-Raf V600E (Homo sapiens (Human), UniProt P15056, V600E); test: B-Raf V600E/Mek Amplified Luminescence Proximity Homogeneous Assay (B-Raf V600E biochemical); settings: read-out: BRAF V600E biochemical IC50
Description: The plate was incubated for 60 minutes at room temperature.
The B-Raf kinase activity reaction was started by the addition of 10 μl per well of 2×ATP (10 μM) diluted in assay buffer. After 3 hours, the reactions were stopped with the addition of 10 μl of stop reagent (60 mM EDTA, 0.01% Tween20). Phosphorylated product was measured using a rabbit anti-p-MEK (Cell Signaling, #9121) antibody and the Alpha Screen IgG (ProteinA) detection Kit (PerkinElmer #6760617R), by the addition of 30 μl to the well of a mixture of the antibody (1:2000 dilution) and detection beads (1:1000 dilution of both beads) in bead buffer (50 mM Tris, pH 7.5, 0.01% Tween20). The additions were carried out under dark conditions to protect the detection beads from light. A lid was placed on top of the plate and the plate was incubated for 1 hour at room temperature. The luminescence was read on a PerkinElmer Envision instrument. The concentration of each compound for 50% inhibition (IC50) was calculated by non-linear regression using XL Fit data analysis software.

[1] = Liver Microsomal Clearance Assay, human; format: in vitro ADME; settings: extraction ratio, human liver microsomes
Description: (§1) Liver Microsomal Clearance Assay
(§2) The in vitro microsomal clearance assay is designed to assess potential risks associated with hepatic metabolic stability of compounds. The test compound (1 μM) was incubated with liver microsomes (0.5 mg/mL) from different species (mouse, rat, monkey, dog and human) and NADPH (1 mM) in 100 mM potassium phosphate buffer at 37° C. At specific reaction time points (0, 5, 10 and 30 minutes), reaction aliquots were removed and reactions were terminated by addition of ice cold acetonitrile containing mass spectrometry internal standard. The samples were centrifuged and the supernatants were analyzed by LC-MS/MS. In vitro metabolic half-life (t1/2, min) and intrinsic clearance (CLint, μL/min/mg) are based on the rate and extent of metabolism of the test compound as determined by the disappearance of the parent compound from the reaction mixture. These values may be scaled to predict hepatic metabolic clearance rate (CLh, mL/min/kg) and extraction ratio (ER, expressed as a ratio of the predicted hepatic metabolic clearance to hepatic blood flow in that species). In general, compounds with high predicted CLint or ER in vitro are considered to be at high risk for exposure-limiting metabolism in vivo.

[2] = Liver Microsomal Clearance Assay, mouse; format: in vitro ADME; settings: extraction ratio, mouse liver microsomes
Description: as §1, §2

[3] = In Vivo Pharmacokinetics Assay in mouse; settings: for bioavailability at 24 h: 10 mg/kg, PO/IV 10/2 mg/kg; for clearance at 24 h: IV 2 mg/kg
Description: (§3) Full pharmacokinetics study: Male Balb/c mice (n=3, body weights 22-25 g) or male Wistar rats (n=3, body weights 250-300 g) were administered the test compound intravenously via the lateral tail vein or orally via gavage. The formulation was typically a 2.5 mg/mL solution of the compound in 75% PEG300 and 25% D5W. Six blood samples of 50 μL each were collected serially for 24 h after dosing. The blood samples were centrifuged to separate the plasma. Plasma samples were analyzed and quantified by LC-MS/MS.
as §3, with “Rapid” for “Full”, “intravenously (IV)” for “intravenously”, “orally (PO)” for “orally”, “Blood” for “The blood”, “and plasma separated and pooled across” for “to separate”, “three animals at each time point per dose route.” for “plasma.”
For both full and rapid pharmacokinetics studies, the following parameters were calculated by non-compartmental regression analysis using Winnonlin 5.0 software (Pharsight, Mountain View, Calif., USA): plasma clearance (Cl), plasma maximum concentration (Cmax), plasma area-under-the-concentration-time-curve (AUC0-inf), and percent oral bioavailability (F %).

A375 cells = test: In Vivo Efficacy - 14 Day A375 Mouse Xenograft Model
Description: A375 cells were grown in sterile conditions in a 37° C. incubator with 5% CO2 for two to four weeks. The cells were cultured in RPMI-1640 media supplemented with 10% FBS. Cells were passaged twice weekly with 0.05% Trypsin/EDTA. On the day of implant, cells were harvested in HBSS (Hank's Balanced Salt Solution). Female Nu/Nu mice (Charles River, 10-11 weeks at start of study) were implanted with 5×10^6 A375 cells/mouse in 50% matrigel, 0.2 mL SQ right flank on day 1. At 19 days post-implant, mice were randomized into 6 groups (9 mice per group), with an average tumor volume of 215 mm^3 and average body weight of 24 g. Test compound was dosed BID for 14 days commencing on day 19 using a dosing volume 0.2 mL per dose, with compound formulated at the appropriate concentration to attain the desired dose level. Clinical observations were made daily. Tumor volume and body weight were measured twice weekly.
Tumor volume results were assessed at 14 days post-first dose. Partial response is defined as having tumor growth 20-50% of control tumor growth. Stable disease is defined as having final tumor volume within +/−20% of initial tumor size. Partial regression is defined as having final tumor volume<80% of initial tumor volume.

SW620 cells = test: SW620 Cell Viability Assay (Cell Titer Glo); format: cell-based; settings: FIG. 1, compound alone
Description: The present invention also includes combinations of the BRaf inhibitors disclosed in this invention with other agents. In particular, the present invention provides for combinations with MEK1/2 inhibitors. FIG. 1 illustrates that the addition of a MEK small molecule inhibitor can reverse the induced ERK signaling, cell growth and transformation caused by a Raf small molecule inhibitor.
SW620 cells were seeded in 1640 RPMI+10% FBS at a density of 1500 cells per 96-well in black walled, clear bottom tissue culture treated plates. Test compounds were serially diluted in DMSO then added to the cells (final DMSO concentration of 0.1%) and incubated at 37° C. and 5% CO2 for 4 days. To measure cell viability, cell plates were brought to room temperature, culture media was removed, and 200 μl of Cell Titer-Glo reagent (Promega, kit components mixed as per the manufacturer's protocol then diluted 1:2 with growth media) was added to each well. Plates were shaken for 5 minutes, then incubated at room temperature for 5 minutes, and the luminescence was measured (Trilux, Perkin Elmer).

[4] = male, Balb/c, plasma, PO 10 mg/kg

Chain of B-Raf V600E (P15056 whole entry V600E): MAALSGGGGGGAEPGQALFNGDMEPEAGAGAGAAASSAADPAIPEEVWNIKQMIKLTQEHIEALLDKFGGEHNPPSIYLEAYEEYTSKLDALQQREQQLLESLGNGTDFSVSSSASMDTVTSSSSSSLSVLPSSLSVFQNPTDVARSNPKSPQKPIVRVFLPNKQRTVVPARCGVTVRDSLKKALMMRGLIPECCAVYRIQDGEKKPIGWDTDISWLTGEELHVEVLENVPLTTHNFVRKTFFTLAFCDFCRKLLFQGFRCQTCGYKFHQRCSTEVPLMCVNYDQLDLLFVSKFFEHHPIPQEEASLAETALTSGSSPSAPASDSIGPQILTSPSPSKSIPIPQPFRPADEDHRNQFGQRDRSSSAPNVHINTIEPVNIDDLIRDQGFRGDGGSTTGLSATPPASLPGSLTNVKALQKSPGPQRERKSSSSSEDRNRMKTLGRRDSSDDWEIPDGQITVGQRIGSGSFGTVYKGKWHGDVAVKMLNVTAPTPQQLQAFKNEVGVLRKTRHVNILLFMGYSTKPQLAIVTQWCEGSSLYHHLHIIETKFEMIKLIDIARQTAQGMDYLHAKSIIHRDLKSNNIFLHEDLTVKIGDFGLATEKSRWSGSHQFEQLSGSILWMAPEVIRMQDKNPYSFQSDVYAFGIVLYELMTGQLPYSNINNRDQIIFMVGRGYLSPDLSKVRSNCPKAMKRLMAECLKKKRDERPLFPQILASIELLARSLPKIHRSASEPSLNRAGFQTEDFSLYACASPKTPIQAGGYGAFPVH

IC50 (B-Raf V600E) | ER Human [1] | ER Mouse [2] | bioavailability at 24 h ([3]; male, Balb/c, plasma) | clearance at 24 h ([3]; male, Balb/c, plasma) | AUC at 24 h [3, 4] | Cmax at 24 h [3, 4] | PO AUC ([3]; PO 10 mg/kg) | AUC ([3]; male, Balb/c, plasma, oral dose of 10 mg/kg) | SMILES | Tumor volume result (A375 cells; 1 mg/kg bid×14, 14 days post-first dose) | Tumor volume result (A375 cells; 3 mg/kg bid×14, 14 days post-first dose) | Tumor volume result (A375 cells; 10 mg/kg bid×14, 14 days post-first dose) | Tumor volume result (A375 cells; 20 mg/kg bid×14, 14 days post-first dose) | cellular proliferation in Cell Titer Glo assay (SW620 cells)
0.7 nM | 0.65 | 0.91 | 8 ± 7% | 99 ± 13 mL/min/kg | 0.24 ± 0.21 µM·h | 0.15 ± 0.07 µM | – | – | CCCS(=O)(=O)Nc1ccc(F)c(-c2nn(C(C)C)cc2-c2ccnc(NC[C@H](C)NC(=O)OC)n2)c1F [Compound 7, Methyl N-[(2S)-1-[(4-{3-[2,6-difluoro-3-(propane-1-sulfonamido)phenyl]-1-(propan-2-yl)-1H-pyrazol-4-yl}pyrimidin-2-yl)amino]propan-2-yl]carbamate] | – | – | – | – | –
– | <0.21 | 0.48 | 43 ± 6% | 4.3 ± 0.4 mL/min/kg | – | 27 ± 4 µM | 30 ± 4 µM·h | 30 ± 4 µM·h | COC(=O)N[C@@H](C)CNc1nccc(-c2cn(C(C)C)nc2-c2cc(Cl)cc(NS(C)(=O)=O)c2F)n1 [Compound 9, Methyl N-[(2S)-1-({4-[3-(5-chloro-2-fluoro-3-methanesulfonamidophenyl)-1-(propan-2-yl)-1H-pyrazol-4-yl]pyrimidin-2-yl}amino)propan-2-yl]carbamate] | partial response (Partial response is defined as having tumor growth 20-50% of control tumor growth) | stable disease (Stable disease is defined as having final tumor volume within +/−20% of initial tumor size) | partial regression (Partial regression is defined as having final tumor volume<80% of initial tumor volume) | partial regression (Partial regression is defined as having final tumor volume<80% of initial tumor volume) | induction in cellular proliferation
